The values that follow come from patent US20240101572A1, “DIHYDROOXADIAZINONE COMPOUND AND PHARMACEUTICAL USE THEREOF” (Japan Tobacco Inc., priority 2022, published 2024).

One test has as its target full-length human PLD1 (Homo sapiens (Human), UniProt Q13393). As to the kind of experiment: Evaluation of human PLD1 enzyme inhibitory activity (Amplex Red / choline oxidase fluorescence). The settings on record: full-length human PLD1 enzyme; read-out: PLD1 IC50. In kind it is biochemical. As to the method: A method for measuring human PLD1 enzyme inhibitory activity using an enzyme in which a FLAG-tag is added to the N-terminus of full-length human PLD1 (1-1036 amino acids) is shown below.
(§1) DNA fragment in which a FLAG-tag sequence is added to the 5′-end of full-length human PLD1 was amplified by PCR method, using commercially available human PLD1 gene (Promega KK) as a template. The amplified DNA fragment was fused with vector pVL1393 for baculovirus production (Pharmingen) digested with BamHI and EcoRI, using In-Fusion HD Cloning Kit (Takara Bio). The full-length human PLD1-expression plasmid DNA for baculovirus was isolated from Escherichia coli DH5a (TOYOBO) transformed with the obtained In-Fusion reaction product. Next, DNA fragment in which a FLAG-tag sequence is added to the 5′-end of full-length human PLD1 was amplified by PCR method, using the full-length human PLD1-expression plasmid DNA for baculovirus as a template. The amplified DNA fragment was fused with a DNA fragment in which a linker sequence is introduced into pcDNA3.4-TOPO (Life Technologies), using In-Fusion HD Cloning Kit (Takara Bio). The full-length human PLD1-expression plasmid DNA for animal cells was isolated from Escherichia coli DH5a transformed with the obtained In-Fusion reaction product. The base sequence of the full-length human PLD1 cloned into vector was determined by a Dye Terminator method using BigDye Terminator v3.1 Cycle Sequencing Kit (Applied Biosystems). The determined sequence was a sequence in which the FLAG-tag sequence was inserted at the 5′-end of the full-length human PLD1 (GenBank Accession Number: NM_001130081).
(§2) Expi293F cells (Life Technologies) were cultured with shaking using Expi293 Expression Medium (Life Technologies) as a medium at 37° C. in the presence of 8% CO2. The gene introduction reagent PEI was prepared by dissolving Polyethylenimine Max (nominally MW 40,000) (Polysciences) in MilliQ water, adjusting the pH of the solution to 7.0 with NaOH to obtain a 1 mg/mL solution, and then filtering the solution through 0.22 μm filter. The full-length human PLD1-expression plasmid DNA for animal cells was transfected into Expi293F cells using PEI, and after 48 hours of shaking culture, the cells were collected and stored at −80° C.
(§3) To the full-length human PLD1-expressed cells was added a Homogenate buffer (20 mmol/L Na-phosphate pH 7.5, 250 mmol/L NaCl, 1 mmol/L MgCl2, 1% β-OG, 0.05 mmol/L DTT+complete EDTA-free (Roche Diagnostics K.K.)), and the cells were lysed by Microfluidizer Processor M-110EH (Mizuho Kogyo Co., Ltd.). The lysate was centrifuged at 10,100×g at 4° C. for 15 minutes, and the supernatant was collected and filtered through 0.45 μm filter. To the centrifuged supernatant was added ANTI-FLAG M2 Affinity Gel (SIGMA-Aldrich) resin equilibrated with a Homogenate buffer, and the mixed solution was stirred at 4° C. for 1 hr or more. The mixed solution was loaded onto Poly-Prep column, and the resin was washed with a Wash buffer (20 mmol/L Na-phosphate pH 7.5, 150 mmol/L NaCl, 1 mmol/L MgCl2, 0.02% Triton, 0.05 mmol/L DTT). A Wash buffer containing 400 μg/mL DYKDDDDK Peptide (Scrum Inc.) was added to the column to elute the protein bound to the resin. The eluted fractions were subjected to SDS-PAGE followed by CBB staining to identify the fractions containing the full-length human PLD1. The eluted fractions of the full-length human PLD1 were collected and concentrated using Amicon Ultra-15 100k (Merck Millipore). The concentrated fractions were collected, flash-frozen in liquid nitrogen and stored at −80° C.
(§4) A DMSO or test substance solution (the DMSO final concentration: 5%) prepared by diluting DMSO or test substance with an Assay buffer (50 mmol/L HEPES pH 7.5, 80 mmol/L KCl, 3 mmol/L EGTA, 3.6 mmol/L MgCl2, 0.01% NP-40, 0.1% BSA), and the solution was added to a 384 well Assay Plate (Black, Polystyrene, Non-Treated, Cat No. 3573, Corning) by 5 μL/well. […]

In a further test the target is full-length human PLD2 (Homo sapiens (Human), UniProt O14939). Put plainly: Evaluation of human PLD2 enzyme inhibitory activity (Amplex Red / choline oxidase fluorescence). In kind it is biochemical. The settings on record: full-length human PLD2 enzyme; read-out: PLD2 IC50. As to the method: A method for measuring human PLD2 enzyme inhibitory activity using an enzyme in which a FLAG-tag is added to the N-terminus of full-length human PLD2 (1-933 amino acids) is shown below.
as §1, with “PLD2” for “PLD1”, “PLD2-expression” for “PLD1-expression”, “NM 002663).” for “NM_001130081).”
as §2, with “PLD2-expression” for “PLD1-expression”
as §3, with “PLD2-expressed” for “PLD1-expressed”, “PLD2.” for “PLD1.”, “PLD2” for “PLD1”
as §4

Sequence of full-length human PLD2 (O14939 whole entry, the tested form may be a part): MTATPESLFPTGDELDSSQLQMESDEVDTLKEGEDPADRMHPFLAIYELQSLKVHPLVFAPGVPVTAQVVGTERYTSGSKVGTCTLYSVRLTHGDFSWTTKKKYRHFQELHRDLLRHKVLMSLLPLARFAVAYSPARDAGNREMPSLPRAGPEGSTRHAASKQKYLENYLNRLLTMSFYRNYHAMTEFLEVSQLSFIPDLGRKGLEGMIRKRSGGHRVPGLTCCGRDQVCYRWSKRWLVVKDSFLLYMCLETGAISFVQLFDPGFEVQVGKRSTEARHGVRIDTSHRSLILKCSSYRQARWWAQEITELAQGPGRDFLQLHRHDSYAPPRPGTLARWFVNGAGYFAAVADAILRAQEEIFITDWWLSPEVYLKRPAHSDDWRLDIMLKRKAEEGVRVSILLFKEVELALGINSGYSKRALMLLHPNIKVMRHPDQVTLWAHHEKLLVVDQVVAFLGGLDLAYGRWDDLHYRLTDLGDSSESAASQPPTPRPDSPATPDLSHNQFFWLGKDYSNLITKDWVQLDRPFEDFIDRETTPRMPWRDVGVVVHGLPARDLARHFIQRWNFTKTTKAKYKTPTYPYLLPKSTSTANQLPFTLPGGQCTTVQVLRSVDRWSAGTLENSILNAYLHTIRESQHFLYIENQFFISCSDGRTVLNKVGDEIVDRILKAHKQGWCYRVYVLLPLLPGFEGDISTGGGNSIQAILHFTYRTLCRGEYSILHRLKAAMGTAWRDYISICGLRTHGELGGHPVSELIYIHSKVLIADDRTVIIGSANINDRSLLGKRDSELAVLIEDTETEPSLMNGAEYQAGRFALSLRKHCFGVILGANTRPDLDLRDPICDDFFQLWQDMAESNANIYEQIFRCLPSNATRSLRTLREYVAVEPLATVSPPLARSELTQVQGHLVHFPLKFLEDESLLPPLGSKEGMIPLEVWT
Sequence of full-length human PLD1 (Q13393 other isoform, or with tags, fused parts or gaps): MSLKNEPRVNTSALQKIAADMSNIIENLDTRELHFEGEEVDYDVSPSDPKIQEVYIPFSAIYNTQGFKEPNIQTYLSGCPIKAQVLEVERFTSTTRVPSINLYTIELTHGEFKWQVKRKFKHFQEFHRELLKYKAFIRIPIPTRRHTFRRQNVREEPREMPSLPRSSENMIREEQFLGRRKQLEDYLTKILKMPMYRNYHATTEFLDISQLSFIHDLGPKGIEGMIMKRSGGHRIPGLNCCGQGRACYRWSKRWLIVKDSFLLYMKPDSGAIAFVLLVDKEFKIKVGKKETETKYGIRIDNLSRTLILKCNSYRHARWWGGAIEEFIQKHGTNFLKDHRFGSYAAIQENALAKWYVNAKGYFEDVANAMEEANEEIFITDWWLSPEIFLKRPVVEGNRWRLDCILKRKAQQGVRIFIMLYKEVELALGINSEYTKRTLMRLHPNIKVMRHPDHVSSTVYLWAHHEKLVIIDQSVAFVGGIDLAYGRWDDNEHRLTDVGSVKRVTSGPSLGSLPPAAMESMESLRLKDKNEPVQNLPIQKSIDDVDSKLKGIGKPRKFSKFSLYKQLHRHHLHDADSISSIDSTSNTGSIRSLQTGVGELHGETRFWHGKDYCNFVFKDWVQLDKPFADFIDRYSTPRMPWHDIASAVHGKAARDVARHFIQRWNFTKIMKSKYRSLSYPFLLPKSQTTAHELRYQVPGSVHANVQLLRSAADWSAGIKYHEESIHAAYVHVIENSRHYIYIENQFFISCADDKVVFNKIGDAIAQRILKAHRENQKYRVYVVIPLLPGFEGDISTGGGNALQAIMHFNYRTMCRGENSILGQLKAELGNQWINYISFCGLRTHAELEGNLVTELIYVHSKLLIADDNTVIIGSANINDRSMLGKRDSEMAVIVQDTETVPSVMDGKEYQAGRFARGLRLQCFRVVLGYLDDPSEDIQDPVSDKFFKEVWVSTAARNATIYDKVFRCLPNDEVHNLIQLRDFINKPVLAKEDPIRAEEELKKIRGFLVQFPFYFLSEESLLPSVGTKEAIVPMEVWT

Usually IC50 stands for the concentration at which inhibition is half-maximal. Regarding `CNC(=O)C(=O)N[C@@H](C)CN1CCC2(CC1)OC(=O)NN=C2c1cc(C#N)ccc1Cl` [Example 2-006], the half-inhibitory concentration (IC50) on full-length human PLD1 was determined as 56 nM; on full-length human PLD2, 11 nM.

`CNC(=O)C(=O)N[C@@H](C)C[C@H]1CC[C@]2(CC1)OC(=O)NN=C2c1cccc(OC(F)F)c1Br` [Example 306]: the IC50 on full-length human PLD1 and at full-length human PLD2 was under 10 nM in each case.

As for `CNC(=O)C(=O)N[C@@H](C)C[C@H]1CC[C@]2(CC1)OC(=O)NN=C2c1ccc(OC(F)(F)F)cc1Br` [Example 80], the IC50 on full-length human PLD1 and on full-length human PLD2 was under 10 nM throughout.

Take `C[C@@H](C[C@H]1CC[C@]2(CC1)OC(=O)NN=C2c1ccc(F)cc1Br)NC(=O)N1CCC2(CC2)C1` [Example 282]: the 50% inhibitory concentration (IC50) was found to be 97 nM on full-length human PLD1 and 146 nM on full-length human PLD2.

For `Cc1cc(C(=O)N[C@@H](C)C[C@H]2CC[C@]3(CC2)OC(=O)NN=C3c2cnc(C3CC3)cc2Cl)[nH]n1` [Example 266], the figures for the half-maximal inhibitory concentration (IC50) on full-length human PLD1 and at full-length human PLD2 were 15 nM and under 10 nM, respectively.

As for `CNC(=O)C(=O)N[C@@H](C)CN1CCC2(CC1)OC(=O)NN=C2c1c(F)cccc1Br` [Example 2-018], the figures for the IC50 on full-length human PLD1 and on full-length human PLD2 were 22 nM and under 10 nM, respectively.

Take `CNC(=O)C(=O)N[C@@H](C)C[C@H]1CC[C@]2(CC1)OC(=O)NN=C2c1ccc(F)cc1C(C)C` [Example 133]: the IC50 turned out to be 29 nM at full-length human PLD1 and 31 nM on full-length human PLD2.

Take `CNC(=O)C(=O)N[C@@H](C)C[C@H]1CC[C@]2(CC1)OC(=O)NN=C2c1ccc(C(C)=O)cc1C` [Example 167]: the IC50 on full-length human PLD1 was 20 nM; at full-length human PLD2 it was under 10 nM.

In the case of `CC(=O)N[C@@H](C)C[C@H]1CC[C@]2(CC1)OC(=O)NN=C2c1ccc(F)cc1Br` [Example 11], the IC50 on full-length human PLD1 amounted to 228 nM; at full-length human PLD2, 394 nM.

In the case of `CNC(=O)C(=O)N[C@@H](C)C[C@H]1CC[C@]2(CC1)OC(=O)NN=C2c1cc(Cl)ccc1Cl` [Example 314], the IC50 at full-length human PLD1 and on full-length human PLD2 was under 10 nM throughout.

With `CNC(=O)C(=O)N[C@H](CN1CCC2(CC1)OC(=O)NN=C2c1cc(C#N)ccc1Br)C(F)(F)F` [Example 2-017], the concentration for half-maximal inhibition (IC50) at full-length human PLD1 is 99 nM; at full-length human PLD2, 45 nM.

Regarding `CNC(=O)C(=O)N[C@@H](C)C[C@H]1CC[C@]2(CC1)OC(=O)NN=C2c1ccc(C(F)(F)F)cc1C` [Example 181], the IC50 on full-length human PLD1 was 13 nM; at full-length human PLD2, under 10 nM.

Take `Cc1cc(F)ccc1C1=NNC(=O)O[C@]12CC[C@@H](C[C@H](C)NC(=O)N1CC[C@@H](c3ccccc3)C1)CC2` [Example 138]: the results for the IC50 on full-length human PLD1 and on full-length human PLD2 were 774 nM and 1400 nM, respectively.

As for `C[C@@H](C[C@H]1CC[C@]2(CC1)OC(=O)NN=C2c1ccc(OC(F)F)cc1Br)NC(=O)c1ccn[nH]1` [Example 143], the IC50 on full-length human PLD1 was 27 nM; on full-length human PLD2, 25 nM.

On to `CNC(=O)C(=O)N[C@@H](C)[C@H](C)[C@H]1CC[C@]2(CC1)OC(=O)NN=C2c1cc(C#N)ccc1Br` [Example 338], for which the concentration for half-maximal inhibition (IC50) was 24 nM at full-length human PLD1 and under 10 nM at full-length human PLD2.

Consider `CNC(=O)C(=O)N[C@@H](C)C[C@H]1CC[C@]2(CC1)OC(=O)NN=C2c1cnc(C(F)(F)F)cc1C` [Example 174], for which the values for the IC50 on full-length human PLD1 and at full-length human PLD2 were 42 nM and 17 nM, respectively.

Turning to `Cc1cc(C(=O)N[C@@H](C)C[C@H]2CC[C@]3(CC2)OC(=O)NN=C3c2cnc(N3CCC(F)(F)C3)cc2C)[nH]n1` [Example 238], the IC50 on full-length human PLD1 was 12 nM; at full-length human PLD2 it was under 10 nM.

Consider `Cc1ccncc1C1=NNC(=O)O[C@]12CC[C@@H](C[C@H](C)NC(=O)c1cc3ccccc3o1)CC2` [Example 114], for which the values for the IC50 at full-length human PLD1 and on full-length human PLD2 were 13 nM and under 10 nM, respectively.

For the compound `CONC(=O)N[C@@H](C)C[C@H]1CC[C@]2(CC1)OC(=O)NN=C2c1ccc(F)cc1I` [Example 208], the half-maximal inhibitory concentration (IC50) was 45 nM on full-length human PLD1 and 224 nM at full-length human PLD2.

Consider `C[C@@H](C[C@H]1CC[C@]2(CC1)OC(=O)NN=C2c1ccc(S(C)(=O)=O)cc1Br)NC(=O)c1cc(Cl)no1` [Example 48], for which the half-inhibitory concentration (IC50) at full-length human PLD1 is 14 nM; on full-length human PLD2 it was under 10 nM.

On to `CNC(=O)C(=O)N[C@@H](C)C[C@H]1CC[C@]2(CC1)OC(=O)NN=C2c1ccc(-c2ccccc2)cc1-c1ccccc1` [Example 73], for which the half-inhibitory concentration (IC50) was found to be 23 nM at full-length human PLD1 and 15 nM at full-length human PLD2.

Regarding `Cc1cc(C(=O)N[C@@H](C)C[C@H]2CC[C@]3(CC2)OC(=O)NN=C3c2cnc(N3C[C@H]4C[C@@H]3CO4)cc2Cl)[nH]n1` [Example 239], the IC50 is 18 nM on full-length human PLD1 and under 10 nM on full-length human PLD2.

Consider `C[C@@H](C[C@H]1CC[C@]2(CC1)OC(=O)NN=C2c1ccc(F)cc1C1CC1)NC(=O)c1cc(Cl)no1` [Example 65], for which the concentration for half-maximal inhibition (IC50) on full-length human PLD1 and on full-length human PLD2 was under 10 nM throughout.
